In PubChem BioAssay (NCI):
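Cells were grown in 96-well plates and exposed to each compound for 48 hours at five concentrations; endpoints were interpolated linearly between bracketing concentrations, or set to the highest concentration if not reached. At the TGI there is no net growth.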

Assays:
Test in all cases: NCI tumour cell line growth inhibition, 48 h
786-0 renal = test system: 786-0 renal
A498 renal = test system: A498 renal
A549 NSCLC = test system: A549 NSCLC
ACHN renal = test system: ACHN renal
BT-549 breast = test system: BT-549 breast
CAKI-1 renal = test system: CAKI-1 renal
CCRF-CEM leukemia = test system: CCRF-CEM leukemia
COLO 205 colon = test system: COLO 205 colon
DU-145 prostate = test system: DU-145 prostate
EKVX NSCLC = test system: EKVX NSCLC
HCC-2998 colon = test system: HCC-2998 colon
HCT-116 colon = test system: HCT-116 colon
HCT-15 colon = test system: HCT-15 colon
HL-60(TB) leukemia = test system: HL-60(TB) leukemia
HOP-62 NSCLC = test system: HOP-62 NSCLC
HOP-92 NSCLC = test system: HOP-92 NSCLC
HS 578T breast = test system: HS 578T breast
HT29 colon = test system: HT29 colon
IGROV1 ovarian = test system: IGROV1 ovarian
K-562 leukemia = test system: K-562 leukemia
KM12 colon = test system: KM12 colon
LOX IMVI melanoma = test system: LOX IMVI melanoma
M14 melanoma = test system: M14 melanoma
MALME-3M melanoma = test system: MALME-3M melanoma
MCF7 breast = test system: MCF7 breast
MDA-MB-231 breast = test system: MDA-MB-231 breast
MDA-MB-435 = test system: MDA-MB-435
MDA-N = test system: MDA-N
MOLT-4 leukemia = test system: MOLT-4 leukemia
NCI-H226 lung = test system: NCI-H226 lung
NCI-H23 lung = test system: NCI-H23 lung
NCI-H460 lung = test system: NCI-H460 lung
NCI-H522 lung = test system: NCI-H522 lung
NCI/ADR-RES ovarian = test system: NCI/ADR-RES ovarian
OVCAR-3 ovarian = test system: OVCAR-3 ovarian
OVCAR-4 ovarian = test system: OVCAR-4 ovarian
OVCAR-5 ovarian = test system: OVCAR-5 ovarian
OVCAR-8 ovarian = test system: OVCAR-8 ovarian
PC-3 prostate = test system: PC-3 prostate
RPMI-8226 leukemia = test system: RPMI-8226 leukemia
RXF 393 renal = test system: RXF 393 renal
SF-268 CNS = test system: SF-268 CNS
SF-295 CNS = test system: SF-295 CNS
SF-539 CNS = test system: SF-539 CNS
SK-MEL-2 melanoma = test system: SK-MEL-2 melanoma
SK-MEL-28 melanoma = test system: SK-MEL-28 melanoma
SK-OV-3 ovarian = test system: SK-OV-3 ovarian
SN12C renal = test system: SN12C renal
SNB-19 CNS = test system: SNB-19 CNS
SNB-75 CNS = test system: SNB-75 CNS
SR leukemia = test system: SR leukemia
SW-620 colon = test system: SW-620 colon
T-47D breast = test system: T-47D breast
TK-10 renal = test system: TK-10 renal
U251 CNS = test system: U251 CNS
UACC-257 melanoma = test system: UACC-257 melanoma
UACC-62 melanoma = test system: UACC-62 melanoma
UO-31 renal = test system: UO-31 renal
SK-MEL-5 melanoma = test system: SK-MEL-5 melanoma

COc1cc(/C=C2/SC(c3ccccc3)N(c3ccc(Cl)cc3)C2=O)cc(OC)c1OC (stereo unspecified)
TGI (786-0 renal): > 100 µM | TGI (A498 renal): > 100 µM | TGI (A549 NSCLC): > 100 µM | TGI (ACHN renal): > 100 µM | TGI (BT-549 breast): > 100 µM | TGI (CAKI-1 renal): > 100 µM | TGI (CCRF-CEM leukemia): > 44.8 µM | TGI (COLO 205 colon): > 42.6 µM | TGI (DU-145 prostate): > 100 µM | TGI (EKVX NSCLC): > 100 µM | TGI (HCC-2998 colon): > 100 µM | TGI (HCT-116 colon): > 100 µM | TGI (HCT-15 colon): > 100 µM | TGI (HL-60(TB) leukemia): > 100 µM | TGI (HOP-62 NSCLC): > 100 µM | TGI (HOP-92 NSCLC): > 100 µM | TGI (HS 578T breast): > 100 µM | TGI (HT29 colon): > 100 µM | TGI (IGROV1 ovarian): > 100 µM | TGI (K-562 leukemia): > 100 µM | TGI (KM12 colon): > 100 µM | TGI (LOX IMVI melanoma): > 100 µM | TGI (M14 melanoma): > 63.3 µM | TGI (MALME-3M melanoma): > 100 µM | TGI (MCF7 breast): > 100 µM | TGI (MDA-MB-231 breast): > 100 µM | TGI (MDA-MB-435): 24.2 µM | TGI (MDA-N): 31.8 µM | TGI (MOLT-4 leukemia): > 100 µM | TGI (NCI-H226 lung): > 100 µM | TGI (NCI-H23 lung): > 100 µM | TGI (NCI-H460 lung): > 100 µM | TGI (NCI-H522 lung): > 100 µM | TGI (NCI/ADR-RES ovarian): > 100 µM | TGI (OVCAR-3 ovarian): > 100 µM | TGI (OVCAR-4 ovarian): > 100 µM | TGI (OVCAR-5 ovarian): > 100 µM | TGI (OVCAR-8 ovarian): > 100 µM | TGI (PC-3 prostate): > 100 µM | TGI (RPMI-8226 leukemia): > 100 µM | TGI (RXF 393 renal): > 100 µM | TGI (SF-268 CNS): > 100 µM | TGI (SF-295 CNS): > 100 µM | TGI (SF-539 CNS): > 100 µM | TGI (SK-MEL-2 melanoma): > 100 µM | TGI (SK-MEL-28 melanoma): > 100 µM | TGI (SK-OV-3 ovarian): > 100 µM | TGI (SN12C renal): > 100 µM | TGI (SNB-19 CNS): > 100 µM | TGI (SNB-75 CNS): > 100 µM | TGI (SR leukemia): > 100 µM | TGI (SW-620 colon): > 100 µM | TGI (T-47D breast): > 100 µM | TGI (TK-10 renal): > 100 µM | TGI (U251 CNS): > 100 µM | TGI (UACC-257 melanoma): > 100 µM | TGI (UACC-62 melanoma): > 100 µM | TGI (UO-31 renal): > 100 µM

c1ccc2cc(OCC3CO3)c(OCC3CO3)cc2c1 (stereo unspecified)
TGI (786-0 renal): 12.9 µM | TGI (A498 renal): 24.7 µM | TGI (A549 NSCLC): 30 µM | TGI (ACHN renal): 6.05 µM | TGI (BT-549 breast): 5.57 µM | TGI (CAKI-1 renal): 37.6 µM | TGI (CCRF-CEM leukemia): 1.48 µM | TGI (COLO 205 colon): 25.3 µM | TGI (DU-145 prostate): 16.7 µM | TGI (EKVX NSCLC): 24.1 µM | TGI (HCT-116 colon): 3.11 µM | TGI (HCT-15 colon): 16.6 µM | TGI (HL-60(TB) leukemia): 45.3 µM | TGI (HOP-62 NSCLC): 13.6 µM | TGI (HOP-92 NSCLC): 23.5 µM | TGI (HS 578T breast): 20.3 µM | TGI (HT29 colon): 20.1 µM | TGI (IGROV1 ovarian): 11.1 µM | TGI (K-562 leukemia): 25.1 µM | TGI (KM12 colon): 26.7 µM | TGI (LOX IMVI melanoma): 12 µM | TGI (M14 melanoma): 13.3 µM | TGI (MALME-3M melanoma): 36.5 µM | TGI (MCF7 breast): 10.1 µM | TGI (MDA-MB-231 breast): 55.1 µM | TGI (MDA-MB-435): 21.7 µM | TGI (MDA-N): 22.9 µM | TGI (MOLT-4 leukemia): 16.5 µM | TGI (NCI-H23 lung): 12.8 µM | TGI (NCI-H460 lung): 15.8 µM | TGI (NCI-H522 lung): 5.79 µM | TGI (NCI/ADR-RES ovarian): 27.3 µM | TGI (OVCAR-3 ovarian): 27.9 µM | TGI (OVCAR-5 ovarian): 23.4 µM | TGI (OVCAR-8 ovarian): 12.2 µM | TGI (PC-3 prostate): 32.1 µM | TGI (RPMI-8226 leukemia): 9.8 µM | TGI (RXF 393 renal): 1.47 µM | TGI (SF-268 CNS): 13.3 µM | TGI (SF-295 CNS): 8.59 µM | TGI (SF-539 CNS): 9.13 µM | TGI (SK-MEL-2 melanoma): 29 µM | TGI (SK-MEL-28 melanoma): 26.1 µM | TGI (SK-MEL-5 melanoma): 21.2 µM | TGI (SK-OV-3 ovarian): 22.3 µM | TGI (SN12C renal): 15 µM | TGI (SNB-19 CNS): 17.7 µM | TGI (SNB-75 CNS): 18.6 µM | TGI (SR leukemia): 2.15 µM | TGI (SW-620 colon): 13.9 µM | TGI (T-47D breast): 45.4 µM | TGI (TK-10 renal): 49.2 µM | TGI (U251 CNS): 13.9 µM | TGI (UACC-257 melanoma): 24.1 µM | TGI (UACC-62 melanoma): 17.6 µM | TGI (UO-31 renal): 21.8 µM

CC1(C)CCCCCCCCCC(C)(CCCO)C1=O (stereo unspecified)
TGI (786-0 renal): 30.7 µM | TGI (A498 renal): 33.1 µM | TGI (A549 NSCLC): 28.8 µM | TGI (ACHN renal): 31.7 µM | TGI (BT-549 breast): 31.6 µM | TGI (CAKI-1 renal): 31.6 µM | TGI (CCRF-CEM leukemia): 92.4 µM | TGI (COLO 205 colon): 30.1 µM | TGI (DU-145 prostate): 31 µM | TGI (EKVX NSCLC): 36.7 µM | TGI (HCC-2998 colon): 33.7 µM | TGI (HCT-116 colon): 31.2 µM | TGI (HCT-15 colon): 31.8 µM | TGI (HL-60(TB) leukemia): 45 µM | TGI (HOP-62 NSCLC): 30.3 µM | TGI (HOP-92 NSCLC): 27.7 µM | TGI (HS 578T breast): 37.9 µM | TGI (HT29 colon): 26.6 µM | TGI (IGROV1 ovarian): 31.4 µM | TGI (K-562 leukemia): 73.7 µM | TGI (KM12 colon): 33 µM | TGI (LOX IMVI melanoma): 32.9 µM | TGI (M14 melanoma): 27.4 µM | TGI (MALME-3M melanoma): 30.6 µM | TGI (MCF7 breast): 31.1 µM | TGI (MDA-MB-231 breast): 28.7 µM | TGI (MDA-MB-435): 34 µM | TGI (MDA-N): 30 µM | TGI (MOLT-4 leukemia): 41.9 µM | TGI (NCI-H226 lung): 31 µM | TGI (NCI-H23 lung): 29.1 µM | TGI (NCI-H460 lung): 33.6 µM | TGI (NCI-H522 lung): 29.7 µM | TGI (NCI/ADR-RES ovarian): 30.5 µM | TGI (OVCAR-3 ovarian): 34.1 µM | TGI (OVCAR-4 ovarian): 29 µM | TGI (OVCAR-5 ovarian): 28.8 µM | TGI (OVCAR-8 ovarian): 35.8 µM | TGI (PC-3 prostate): 27 µM | TGI (RPMI-8226 leukemia): 84.8 µM | TGI (RXF 393 renal): 34.4 µM | TGI (SF-268 CNS): 33.4 µM | TGI (SF-295 CNS): 32.7 µM | TGI (SK-MEL-2 melanoma): 28.9 µM | TGI (SK-MEL-28 melanoma): 34.2 µM | TGI (SK-MEL-5 melanoma): 31.3 µM | TGI (SK-OV-3 ovarian): 31.4 µM | TGI (SN12C renal): 32.2 µM | TGI (SNB-19 CNS): 31.9 µM | TGI (SNB-75 CNS): 31.9 µM | TGI (SR leukemia): > 100 µM | TGI (SW-620 colon): 34.1 µM | TGI (T-47D breast): 29.3 µM | TGI (U251 CNS): 30.4 µM | TGI (UACC-257 melanoma): 31.8 µM | TGI (UACC-62 melanoma): 32.4 µM | TGI (UO-31 renal): 24.4 µM
